From ChEMBL document CHEMBL1148077, “Stellettin A, a new triterpenoid pigment from the marine sponge Stelletta tenuis” (1994)
In brackets after ≈: the same amount, converted by molar mass.

Test system: P388
Assay: Cytotoxicity against mouse P388 cells
Format: functional
Settings: read-out: ED50 (the source's name)

Structure (SMILES): C\C(=C/C=C/C(C)=C1/C(=O)C[C@H]2[C@@]3(C)CCC(=O)C(C)(C)[C@@H]3CC[C@]12C)c1ccc(C)c(=O)o1 [STELLETIN A]
- EC50: 1 ng/mL (≈ 2.16 nM)
